# Results: US20210122781A1, “STAPLED PEPTIDES” (Agency for Science, Technology and Research, priority 2017, published 2021)
# “Also recorded” adds a separate entry of the source. Bridge positions count the residues as written; N and C are the ends. Square brackets hold non-standard residues; d marks the D form. Peptide text beside a SMILES is read from it. R8 = C=CCCCCCC[C@@](C)(N)C(=O)O; S5 = C=CCCC[C@](C)(N)C(=O)O; Ahx = NCCCCCC(=O)O
# Experiments:
# [1] = tested on: p53 protein levels; experiment: p53 staining of spleens from p53 wild type mice after IP injection of peptide; format: in vivo; conditions: normal p53 wild type mice, 40 mg/kg IP, spleens harvested 5 hours post injection, late- vs early-eluting isomer
# Procedure: FIG. 5. Spleen samples of wildtype-p53 mice harvested 5 hours after intraperitoneal injection with either DMSO (vehicle) or the early or late eluting isomer of stapled peptides VIP82, VIP115 or VIP116. […] A subset of the peptide analogues was subsequently assessed for their ability to stabilise p53 protein levels in proliferating cells. In particular, lysine-containing peptides were chosen due to their enhanced solubility in biological buffers. Normal p53 wild type mice were administered with either vehicle (DMSO) or 40 mg/kg of peptide via IP. Spleens were then harvested 5 hours post injection and histological samples were processed for p53 staining (FIG. 5).
# [2] = tested on: p53 stabilization; experiment: p53 IHC staining of spleen and tumour from C57BL/6 mice bearing B16F10 melanoma allograft; format: in vivo; conditions: C57BL/6 mice with B16F10 melanoma allograft, 40 mg/kg intraperitoneal, harvested 6 hours post injection, listed as VIP116 late-eluting isomer
# Procedure: FIG. 6. Photomicrographs of (A) spleen and (B) tumour samples from C57BL/6 mice after treatment with DMSO vehicle or p53-stabilising stapled peptide isomers VIP116 (both early-eluting and late-eluting isomers) and ATSP-7041 (late-eluting isomer only).
# The stapled peptides VIP116 (both early-eluting and late-eluting isomers) and ATSP-7041 (late-eluting isomer) were injected into C57BL/6 mice bearing an allograft tumour (B16F10 melanoma cells) via intraperitoneal injection at a dose of 40 mg/kg. The spleen and tumour were both harvested from the mice 6 hours post injection. The p53 stabilization was detected and visualised in harvested tissue samples by p53 IHC staining (FIG. 6). A vehicle (2% DMSO in HBSS buffer) was used as a control.
smiles,measurement,setting,value
CC(=O)N[C@@H](CCCCN)C(=O)N[C@@H](CCCCN)C(=O)NCCCCCC(=O)N[C@H](C(=O)N[C@@H](CO)C(=O)N[C@@H](Cc1ccccc1)C(=O)N[C@]1(C)CCCCCC/C=C/CCC[C@@](C)(C(=O)N[C@@H](CCC(=O)O)C(=O)N[C@@H](CC(N)=O)C(=O)N[C@@H](Cc2ccccc2)C(N)=O)NC(=O)[C@H](CC(C)C)NC(=O)[C@H](CC(C)C)NC(=O)[C@H](C)NC(=O)[C@H](Cc2c[nH]c3ccccc23)NC(=O)[C@H](Cc2ccc(O)cc2)NC(=O)[C@H](CCC(=O)O)NC1=O)[C@@H](C)O [VIP82-Late] (Ac-KK[Ahx]TSF[R8]EYWALL[S5]ENF-NH2; staple (E) 7-14),p53 protein level / expression in spleen (p53 staining),"[1]; listed as VIP82 late eluting isomer, 40 mg/kg",higher in the late eluting isomer
same,p53 protein level / expression in spleen (p53 staining),"[1]; listed as VIP82 late-eluting isomer, 40 mg/kg",higher concentration of p53 in mouse tissues compared to the early-eluting isomer
CC(=O)N[C@@H](CCCCN)C(=O)N[C@@H](CCCCN)C(=O)N[C@@H](CCCCN)C(=O)NCCCCCC(=O)N[C@H](C(=O)N[C@@H](CO)C(=O)N[C@@H](Cc1ccccc1)C(=O)N[C@]1(C)CCCCCC/C=C/CCC[C@@](C)(C(=O)N[C@@H](CCC(=O)O)C(=O)N[C@@H](CC(N)=O)C(=O)N[C@@H](Cc2ccccc2)C(N)=O)NC(=O)[C@H](CC(C)C)NC(=O)[C@H](CC(C)C)NC(=O)[C@H](C)NC(=O)[C@H](Cc2c[nH]c3ccccc23)NC(=O)[C@H](Cc2ccc(O)cc2)NC(=O)[C@H](CCC(=O)O)NC1=O)[C@@H](C)O [VIP115-Late] (Ac-KKK[Ahx]TSF[R8]EYWALL[S5]ENF-NH2; staple (E) 8-15),p53 protein level / expression in spleen (p53 staining),"[1]; listed as VIP115 late eluting isomer, 40 mg/kg",higher in the late eluting isomer
same,p53 protein level / expression in spleen (p53 staining),"[1]; listed as VIP115 late-eluting isomer, 40 mg/kg",higher concentration of p53 in mouse tissues compared to the early-eluting isomer
CC(=O)N[C@@H](CCCCN)C(=O)NCCCCCC(=O)N[C@H](C(=O)N[C@@H](CO)C(=O)N[C@@H](Cc1ccccc1)C(=O)N[C@]1(C)CCCCCC/C=C/CCC[C@@](C)(C(=O)N[C@@H](CCC(=O)O)C(=O)N[C@@H](CC(N)=O)C(=O)N[C@@H](Cc2ccccc2)C(N)=O)NC(=O)[C@H](CC(C)C)NC(=O)[C@H](CC(C)C)NC(=O)[C@H](C)NC(=O)[C@H](Cc2c[nH]c3ccccc23)NC(=O)[C@H](Cc2ccc(O)cc2)NC(=O)[C@H](CCC(=O)O)NC1=O)[C@@H](C)O [VIP116-Late],p53 activation response (p53 IHC staining) in spleen and tumour,[2],higher p53 activation response in both spleen and tumour samples; also recorded: more potent than the late-eluting isomer of ATSP-7041
same,p53 protein level / expression in spleen (p53 staining),[1],as active as the early-isomer
